Assay results published in ChEMBL document CHEMBL4417635, “2-hydroxyarylamide derivative or pharmaceutically acceptable salt thereof, preparation method thereof, and pharmaceutical composition for preventing or treating cancer containing same as active ingredient” (2013).

Columns and labels:
[1] = target: Transmembrane protease serine 4 (Homo sapiens) (UniProt Q9NRS4); assay: (§1) Inhibition of TMPRSS4 serine protease domain (Val 205 to Leu 437 residues) (unknown origin) expressed in Escherichia coli BL21 (DE3) using […]-Gln-Ala-Arg-7-amido-4-methylcoumarin hydrochloride substrate and measured for 5 mins at 5 mins intervals by fluorescence based assay relative to control
Sequence of Transmembrane protease serine 4 (Homo sapiens) (Q9NRS4 whole entry, the tested form may be a part): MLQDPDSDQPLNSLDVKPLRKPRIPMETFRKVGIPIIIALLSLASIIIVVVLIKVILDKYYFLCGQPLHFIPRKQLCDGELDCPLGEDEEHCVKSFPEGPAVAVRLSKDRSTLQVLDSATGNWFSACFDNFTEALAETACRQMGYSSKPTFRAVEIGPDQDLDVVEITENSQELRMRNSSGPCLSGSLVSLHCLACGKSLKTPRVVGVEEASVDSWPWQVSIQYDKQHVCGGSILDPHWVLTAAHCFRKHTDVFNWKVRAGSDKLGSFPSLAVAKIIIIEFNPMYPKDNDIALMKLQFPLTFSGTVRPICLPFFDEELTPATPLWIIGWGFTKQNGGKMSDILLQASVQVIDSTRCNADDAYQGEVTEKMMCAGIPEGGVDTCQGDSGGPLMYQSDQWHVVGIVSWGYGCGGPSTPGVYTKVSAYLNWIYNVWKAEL

[2] = target: Transmembrane protease serine 4 (Homo sapiens) (UniProt Q9NRS4); assay: as §1, with “(DE3) at 100 uM” for “(DE3)”
[3] = target: Transmembrane protease serine 4 (Homo sapiens) (UniProt Q9NRS4); assay: as §1, with “(DE3) at 30 uM” for “(DE3)”
[4] = target: Transmembrane protease serine 4 (Homo sapiens) (UniProt Q9NRS4); assay: as §1, with “(DE3) at 10 uM” for “(DE3)”
[5] = target: Transmembrane protease serine 4 (Homo sapiens) (UniProt Q9NRS4); assay: Inhibition of TMPRSS4 (unknown origin) expressed in human SW480 cells assessed as reduction in cell migration at 0.8 uM incubated for 48 hrs by crystal violet staining based assay relative to control

Row | Structure (SMILES) | inhibition [1] | inhibition [2] [%] | inhibition [3] [%] | inhibition [4] [%] | inhibition [5] [%]
1 | Cc1cc(C)nc(NC(=O)c2cc(Cl)ccc2O)n1 | Dose-dependent effect | 0 | 0 |  | 
2 | O=C(Nc1cc(C(F)(F)F)ccc1Br)c1cc(Cl)ccc1O | Dose-dependent effect |  | 100 | 40 | 
3 | O=C(Nc1cc(C(F)(F)F)cc(C(F)(F)F)c1)c1ccccc1O | Dose-dependent effect |  | 20 | 0 | 
4 | O=C(Nc1ccc(C(F)(F)F)cc1[N+](=O)[O-])c1cc(Cl)ccc1O | Dose-dependent effect |  | 98 | 53 | 76
5 | O=C(Nc1cc(C(F)(F)F)cc(C(F)(F)F)c1)c1ccc(Cl)cc1O | Dose-dependent effect |  | 74 | 29 | 
6 | O=C(Nc1cccc(C(F)(F)F)c1C(F)(F)F)c1cc(Cl)ccc1O | Dose-dependent effect |  | 77 | 29 | 
7 | O=C(Nc1cc(C(F)(F)F)ccc1Cl)c1cc(Cl)ccc1O | Dose-dependent effect | 100 | 99 | 64 | 
8 | O=C(Nc1cc(C(F)(F)F)ccc1F)c1cc(Cl)ccc1O | Dose-dependent effect | 100 | 100 | 67 to 100 | 
9 | O=C(Nc1cc(C(F)(F)F)cc(C(F)(F)F)c1)c1cc(-c2ccc(F)cc2F)ccc1O | Dose-dependent effect |  | 31 | 5 | 
10 | COc1ccc(O)c(C(=O)Nc2cc(C(F)(F)F)cc(C(F)(F)F)c2)c1 | Dose-dependent effect |  | 53 | 0 | 
11 | O=C(Nc1cc(C(F)(F)F)cc(C(F)(F)F)c1)c1cc(Cl)cc(Cl)c1O | Dose-dependent effect |  | 100 | 100 | 
12 | O=C(Nc1ccccc1)c1cc(Cl)ccc1O | Dose-dependent effect | 75 | 13 |  | 
13 | O=C(Nc1ccc(C(F)(F)F)c(C(F)(F)F)c1)c1cc(Cl)ccc1O | Dose-dependent effect |  | 59 | 37 | 
14 | Cc1c(C(F)(F)F)cc(NC(=O)c2cc(Cl)ccc2O)cc1C(F)(F)F | Dose-dependent effect |  | 94 | 51 | 
15 | COc1c(C(F)(F)F)cc(NC(=O)c2cc(Cl)ccc2O)cc1C(F)(F)F | Dose-dependent effect |  | 80 | 56 | 
16 | O=C(Nc1nccs1)c1cc(Cl)ccc1O | Dose-dependent effect | 90 | 44 |  | 
17 | Cc1cc(Cl)cc(C(=O)Nc2cc(C(F)(F)F)cc(C(F)(F)F)c2)c1O | Dose-dependent effect |  | 78 | 33 | 
18 | O=C(Nc1cc(C(F)(F)F)cc(C(F)(F)F)c1)c1cc2ccccc2cc1O | Dose-dependent effect |  | 96 | 58 | 72
19 | O=C(Nc1cc(C(F)(F)F)ccc1C(F)(F)F)c1cc(Cl)ccc1O | Dose-dependent effect |  | 54 | 46 | 

Row | Structure (SMILES) | inhibition [1] | inhibition [2] [%] | inhibition [3] [%] | inhibition [4] [%] | inhibition [5] [%]
20 | O=C(Nc1ccccn1)c1cc(Cl)ccc1O | Dose-dependent effect | 11 | 0 |  | 
21 | O=C(Nc1cccc(C(F)(F)F)c1)c1cc(Cl)ccc1O | Dose-dependent effect |  | 91 | 37 | 
22 | O=C(Nc1ccncc1Cl)c1cc(Cl)ccc1O | Dose-dependent effect |  | 8 |  | 
23 | N#Cc1ccc(NC(=O)c2cc(Cl)ccc2O)cc1 | Dose-dependent effect | 69 | 29 |  | 
24 | Cc1csc(NC(=O)c2cc(Cl)ccc2O)n1 | Dose-dependent effect | 67 | 0 |  | 
25 | Cc1cc(C)cc(NC(=O)c2cc(Cl)ccc2O)c1 | Dose-dependent effect | 56 | 44 |  | 
26 | O=C(Nc1cc(C(F)(F)F)c(Br)c(C(F)(F)F)c1)c1cc(Cl)ccc1O | Dose-dependent effect |  | 85 | 58 | 
27 | O=C(Nc1ccc(Br)c(C(F)(F)F)c1)c1cc(Cl)ccc1O | Dose-dependent effect | 98 | 46 to 93 | 30 to 80 | 
28 | O=C(Nc1nc(C(F)(F)F)cs1)c1cc(Cl)ccc1O | Dose-dependent effect | 100 | 61 |  | 
29 | N#Cc1ccc(O)c(C(=O)Nc2cc(C(F)(F)F)cc(C(F)(F)F)c2)c1 | Dose-dependent effect |  | 53 | 15 | 
30 | O=C(Nc1ccc(F)c(C(F)(F)F)c1)c1cc(Cl)ccc1O | Dose-dependent effect | 98 | 86 | 64 | 
31 | O=C(Nc1ncccn1)c1cc(Cl)ccc1O | Dose-dependent effect | 2 | 0 |  | 
32 | O=C(Nc1cc(Cl)c(Cl)c(Cl)c1)c1cc(Cl)ccc1O | Dose-dependent effect |  | 23 | 6 | 
33 | O=C(Nc1ccnc(Cl)c1)c1cc(Cl)ccc1O | Dose-dependent effect | 21 | 35 |  | 
34 | O=C(Nc1ccc(C(F)(F)F)cc1)c1cc(Cl)ccc1O | Dose-dependent effect |  | 100 | 22 | 
35 | CC(=O)Oc1ccc(Cl)cc1C(=O)Nc1cc(C(F)(F)F)cc(C(F)(F)F)c1 | Dose-dependent effect |  | 4 | 0 | 
36 | O=C(Nc1c(F)c(F)nc(F)c1F)c1cc(Cl)ccc1O | Dose-dependent effect | 51 | 31 |  | 
37 | O=C(Nc1cc(C(F)(F)F)cc(C(F)(F)F)c1)c1ccc(C(F)(F)F)cc1O | Dose-dependent effect |  | 79 | 32 | 
38 | O=C(Nc1cc(C(F)(F)F)cc(C(F)(F)F)c1Cl)c1cc(Cl)ccc1O | Dose-dependent effect |  | 100 | 43 | 

Row | Structure (SMILES) | inhibition [1] | inhibition [2] [%] | inhibition [3] [%] | inhibition [4] [%] | inhibition [5] [%]
39 | NC(=O)c1ccc(O)c(C(=O)Nc2cc(C(F)(F)F)cc(C(F)(F)F)c2)c1 | Dose-dependent effect |  | 21 | 0 | 
40 | O=C(Nc1ncc(C(F)(F)F)cc1Cl)c1cc(Cl)ccc1O | Dose-dependent effect | 0 | 0 |  | 
41 | CC(=O)Nc1ccc(O)c(C(=O)Nc2cc(C(F)(F)F)cc(C(F)(F)F)c2)c1 | Dose-dependent effect |  | 0 | 0 | 
42 | O=C(Nc1cc(C(F)(F)F)cc(C(F)(F)F)c1)c1cc(Br)ccc1O | Dose-dependent effect |  | 84 | 54 | 
43 | O=C(Nc1cc(C(F)(F)F)cc(C(F)(F)F)c1)c1cnc2ccccc2c1O | Dose-dependent effect |  | 0 | 0 | 
44 | Nc1ccc(O)c(C(=O)Nc2cc(C(F)(F)F)cc(C(F)(F)F)c2)c1 | Dose-dependent effect |  | 30 | 3 | 
45 | O=C(Nc1ccc(C(F)(F)F)cn1)c1cc(Cl)ccc1O | Dose-dependent effect | 47 | 25 |  | 
46 | O=C(NCc1cc(C(F)(F)F)cc(C(F)(F)F)c1)c1cc(Cl)ccc1O | Dose-dependent effect |  | 63 | 36 | 
47 | Cc1ccc(O)c(C(=O)Nc2cc(C(F)(F)F)cc(C(F)(F)F)c2)c1 | Dose-dependent effect |  | 64 | 0 | 
48 | O=C(Nc1cc(C(F)(F)F)cc(C(F)(F)F)c1)c1cc(F)ccc1O | Dose-dependent effect |  | 55 | 0 | 
49 | O=C(Nc1cc(C(F)(F)F)cc(C(F)(F)F)c1)c1cc(Cl)cnc1O | Dose-dependent effect |  | 19 | 0 | 
50 | O=C(Nc1cc(Cl)cc(Cl)c1)c1cc(Cl)ccc1O | Dose-dependent effect |  | 58 | 15 | 
51 | O=C(Nc1cc(C(F)(F)F)cc(C(F)(F)F)c1)c1cc(Cl)ccc1OCc1ccccc1 | Dose-dependent effect |  | 6 | 0 | 
52 | N#Cc1cccc(NC(=O)c2cc(Cl)ccc2O)c1 | Dose-dependent effect | 88 | 47 | 12 | 
53 | O=C(Nc1cc(Br)cc(C(F)(F)F)c1)c1cc(Cl)ccc1O | Dose-dependent effect | 100 | 100 | 64 | 
54 | O=C(Nc1cc(C(F)(F)F)cc(C(F)(F)F)c1)c1cc([N+](=O)[O-])ccc1O | Dose-dependent effect |  | 78 | 33 | 
55 | O=C(Nc1ccc(Cl)cn1)c1cc(Cl)ccc1O | Dose-dependent effect | 55 | 14 |  | 
56 | O=C(Nc1cc(C(F)(F)F)cc(C(F)(F)F)c1)c1cccc(Cl)c1O | Dose-dependent effect |  | 93 | 61 | 
57 | O=C(Nc1ccc(Cl)nc1)c1cc(Cl)ccc1O | Dose-dependent effect | 39 | 6 |  | 
